# Experiments:
# [1] = Analysis of active substance: preservative concentration before and after storage in VI-containing polymer solution; type: physicochemical; conditions: for active-substance concentration, 0 d, RT: before storage; for active-substance concentration, 14 d, 40° C.: storage 14 d at 40° C.; for active-substance concentration, 28 d, 40° C.: storage 28 d at 40° C.; for active-substance concentration, 60 d 40° C.: storage 60 d at 40° C.
# How it was run: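 Preservatives (MIT, BIT, CMIT, OIT, DCOIT, iodopropynyl butyl carbamate) in aqueous vinylpyrrolidone–vinylimidazole copolymer solution quantified after dilution by isocratic RP18 chromatography with UV detection, using an acid-methanol eluent.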
# [2] = system: Bacteria: Escherichia coli, Staphylococcus aureus, Pseudomonas aeruginosa, Pseudomonas putida, Burkholderia cepacia, Alcaligenes faecalis; experiment: Preservation test with periodic inoculation, bacteria assessment; type: cell-based; conditions: Polymer P4; sample stored 60 d at 40° C.
# How it was run: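 Polymer samples (25 g) containing preservative were inoculated weekly, four times, with 10^9/ml bacterial or yeast mixtures (0.5 ml). Weekly streaks on agar were scored semiquantitatively (−− to ++) after 3 days at 25 °C, on fresh samples and on samples stored 60 days at 40 °C.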
# [3] = Iodine color number according to DIN 6162:2014-09; type: physicochemical
# [4] = Physical stability; visual assessment (color, turbidity, phase separation); type: physicochemical; design: key: ++: no discernible change with respect to color, turbidity or phase separation; +: marginal change in color number, somewhat increased Tyndall effect but no turbidity; 0: easily discernible increase in color number and moderate turbidity−no phase separation; −: turbidity and change in color number readily discernible by visual assessment; −−: strong color change with strong turbidity and incipient phase separation
# How it was run: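 Samples were inspected visually for color, turbidity and phase separation and scored on a five-step scale. Scores run from ++ (no discernible change) to −− (strong color change, strong turbidity, incipient phase separation).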
# [5] = Polymer P5 (HP56) with stabilizer
smiles,measurement,setting,value
"CCCCCCCCCCCCCCCC[N+](C)(C)Cc1ccccc1.[Cl-] [Polymer 16-BAC, cetylalkonium chloride]","active-substance concentration, 0 d, RT",[1]; in Polymer P1,1000 ppm
same,"active-substance concentration, 14 d, 40° C.",[1]; in Polymer P1,960 ppm
same,"active-substance concentration, 28 d, 40° C.",[1]; in Polymer P1,960 ppm
same,"active-substance concentration, 60 d 40° C.",[1]; in Polymer P1,940 ppm
same,"active-substance concentration, 0 d, RT",[1]; in Polymer P2,1000 ppm
same,"active-substance concentration, 14 d, 40° C.",[1]; in Polymer P2,960 ppm
same,"active-substance concentration, 28 d, 40° C.",[1]; in Polymer P2,960 ppm
same,"active-substance concentration, 60 d 40° C.",[1]; in Polymer P2,940 ppm
same,"active-substance concentration, 0 d, RT",[1]; in Polymer P3,1000 ppm
same,"active-substance concentration, 14 d, 40° C.",[1]; in Polymer P3,975 ppm
same,"active-substance concentration, 28 d, 40° C.",[1]; in Polymer P3,968 ppm
same,"active-substance concentration, 60 d 40° C.",[1]; in Polymer P3,952 ppm
same,"active-substance concentration, 0 d, RT",[1]; in Polymer P4,1000 ppm
same,"active-substance concentration, 14 d, 40° C.",[1]; in Polymer P4,964 ppm
same,"active-substance concentration, 28 d, 40° C.",[1]; in Polymer P4,960 ppm
same,"active-substance concentration, 60 d 40° C.",[1]; in Polymer P4,944 ppm
same,"active-substance concentration, 0 d, RT",[1]; in Polymer P5 (HP56),1000 ppm
same,"active-substance concentration, 14 d, 40° C.",[1]; in Polymer P5 (HP56),960 ppm
same,"active-substance concentration, 28 d, 40° C.",[1]; in Polymer P5 (HP56),960 ppm
same,"active-substance concentration, 60 d 40° C.",[1]; in Polymer P5 (HP56),940 ppm
same,"active-substance concentration, 0 d, RT",[1]; in Polymer P6,1000 ppm
same,"active-substance concentration, 14 d, 40° C.",[1]; in Polymer P6,970 ppm
same,"active-substance concentration, 28 d, 40° C.",[1]; in Polymer P6,961 ppm
same,"active-substance concentration, 60 d 40° C.",[1]; in Polymer P6,954 ppm
same,"active-substance concentration, 0 d, RT",[1]; in Polymer P7,1000 ppm
same,"active-substance concentration, 14 d, 40° C.",[1]; in Polymer P7,975 ppm
same,"active-substance concentration, 28 d, 40° C.",[1]; in Polymer P7,966 ppm
same,"active-substance concentration, 60 d 40° C.",[1]; in Polymer P7,953 ppm
same,"active-substance concentration, 0 d, RT",[1]; in Polymer P8,1000 ppm
same,"active-substance concentration, 14 d, 40° C.",[1]; in Polymer P8,960 ppm
same,"active-substance concentration, 28 d, 40° C.",[1]; in Polymer P8,960 ppm
same,"active-substance concentration, 60 d 40° C.",[1]; in Polymer P8,940 ppm
same,"active-substance concentration, 0 d, RT",[1]; in Polymer P9,1000 ppm
same,"active-substance concentration, 14 d, 40° C.",[1]; in Polymer P9,960 ppm
same,"active-substance concentration, 28 d, 40° C.",[1]; in Polymer P9,960 ppm
same,"active-substance concentration, 60 d 40° C.",[1]; in Polymer P9,940 ppm
same,"60 d 40° C., bact. assess., 4th inoculation",[2],"− (slight growth, max. 100 colonies)"
same,"Iodine color number, 60 d 40° C.",[3]; Polymer P1 with stabilizer,2.7
same,"Iodine color number, start",[3]; Polymer P1 with stabilizer,2.6
same,"Iodine color number, 60 d 40° C.",[3]; Polymer P2 with stabilizer,3.1
same,"Iodine color number, start",[3]; Polymer P2 with stabilizer,3.0
same,"Iodine color number, 60 d 40° C.",[3]; Polymer P3 with stabilizer,3.3
same,"Iodine color number, start",[3]; Polymer P3 with stabilizer,3.1
same,"Iodine color number, 60 d 40° C.",[3]; Polymer P4 with stabilizer,3.3
same,"Iodine color number, start",[3]; Polymer P4 with stabilizer,3.1
same,"Iodine color number, 60 d 40° C.",[3]; [5],3.3
same,"Iodine color number, start",[3]; [5],3.4
same,"Iodine color number, 60 d 40° C.",[3]; Polymer P6 with stabilizer,3.5
same,"Iodine color number, start",[3]; Polymer P6 with stabilizer,3.4
same,"Iodine color number, 60 d 40° C.",[3]; Polymer P7 with stabilizer,3.5
same,"Iodine color number, start",[3]; Polymer P7 with stabilizer,3.4
same,"Iodine color number, 60 d 40° C.",[3]; Polymer P8 with stabilizer,3.5
same,"Iodine color number, start",[3]; Polymer P8 with stabilizer,3.2
same,"Iodine color number, 60 d 40° C.",[3]; Polymer P9 with stabilizer,3.9
same,"Iodine color number, start",[3]; Polymer P9 with stabilizer,3.7
same,"Physical stability, 60 d 40° C.*",[4]; Polymer P1 with stabilizer,+
same,"Physical stability, 60 d 40° C.*",[4]; Polymer P2 with stabilizer,+
same,"Physical stability, 60 d 40° C.*",[4]; Polymer P3 with stabilizer,+
same,"Physical stability, 60 d 40° C.*",[4]; Polymer P4 with stabilizer,+
same,"Physical stability, 60 d 40° C.*",[4]; [5],+
same,"Physical stability, 60 d 40° C.*",[4]; Polymer P6 with stabilizer,+
same,"Physical stability, 60 d 40° C.*",[4]; Polymer P7 with stabilizer,+
same,"Physical stability, 60 d 40° C.*",[4]; Polymer P8 with stabilizer,+
same,"Physical stability, 60 d 40° C.*",[4]; Polymer P9 with stabilizer,++

# Reference: patent US12281225B2, “Process for preparing stable polymers containing vinylimidazole” (BASF SE, priority 2018, dated 2025)
